The test system of assay [1] is Mus musculus. Kind of assay: Anticonvulsant activity in mouse at 300 mg/kg, ip after 5 mins by MES test. Type of assay: functional, organism-based. Further details: dose 300 mg/kg.
Assay [2] concerns Mus musculus. The assay can be described thus: Anticonvulsant activity in mouse at 300 mg/kg, ip after 15 mins by MES test. It is filed as functional, organism-based. Also noted: dose 300 mg/kg.
Assay [3] relates to Mus musculus. Kind of assay: Anticonvulsant activity in mouse at 300 mg/kg, ip after 30 mins by MES test. It is filed as functional, organism-based. Further details: dose 300 mg/kg.
The test system of assay [4] is Mus musculus. The assay can be described thus: Anticonvulsant activity in mouse at 300 mg/kg, ip after 60 mins by MES test. It is filed as functional, organism-based. Further details: dose 300 mg/kg.
The test system of assay [5] is Mus musculus. The assay can be described thus: Anticonvulsant activity in mouse at 300 mg/kg, ip after 120 mins by MES test. It is filed as functional, organism-based. Further details: dose 300 mg/kg.
The species entered for assay [6] is Mus musculus. Kind of assay: Anticonvulsant activity in mouse after 5 mins by MES test. Type of assay: functional.
The species named for assay [7] is Mus musculus. The assay can be described thus: Anticonvulsant activity in mouse after 15 mins by MES test. It is filed as functional. To be noted: 0.25 h.
For assay [8], the species on record is Mus musculus. The assay can be described thus: Anticonvulsant activity in mouse after 30 mins by MES test. To be noted: 0.5 h. Type of assay: functional.
The species named for assay [9] is Mus musculus. Kind of assay: Anticonvulsant activity in mouse after 60 mins by MES test. It is filed as functional. As to conditions: 1 h.
For assay [10], the system named is Thoracic aorta. The assay can be described thus: Muscle relaxant activity in rat thoracic aorta assessed as inhibition of KCl-induced contraction at 100 uM. Type of assay: functional.

Active and inactive are the calls of the source. The rule behind the calls is not given here. A value given as a limit tells only on which side of the number the result lay.

`COc1cc(C(=O)O)ccc1OCC=C(C)C`: the outcome in assay [1], in assay [2], in assay [3], in assay [4] and in assay [5] was inactive.
For the compound `CC(C)=CCOc1ccc(CCC(=O)O)cc1`, the result in assay [1], in assay [2], in [3], in [4] and in assay [5] was inactive.
As a reminder, the ED50 is the dose at which the effect has come halfway, by size or by number of responders. The low end stands for an effect at a small dose, the high end for a need for a large dose. For the compound `COc1cc(/C=C/C(=O)O)ccc1OC/C=C(\C)CCC=C(C)C`, the result in [2] and in assay [3] was Active. Also, the result in assay [5] was inactive. In addition, the ED50 in assay [6] is 225 mg/kg; in assay [7], 224 mg/kg; in assay [8], 224 mg/kg; in assay [9], above 350 mg/kg.
Turning to `CC(C)=CCOc1ccc(/C=C/C(=O)O)cc1`, the result in [1] and in assay [2] was Active. Besides, the result in assay [5] was inactive. Besides, the ED50 is 228 mg/kg in [6], 262 mg/kg in assay [7], 312 mg/kg in assay [8] and above 350 mg/kg in assay [9].
As to `COc1cc(C(=O)O)ccc1OC/C=C(\C)CCC=C(C)C`, the result in assay [1], in assay [2], in assay [3], in assay [4] and in assay [5] was inactive.
As for `COc1cc(/C=C/C(=O)O)ccc1OCC=C(C)C`, the result in [1], in assay [2], in assay [3], in [4] and in assay [5] was inactive.
Usually inhibition stands for the change of the read-out against control, counted positive when it falls. As for `CC(C)=CCOc1ccc2ccc(=O)oc2c1` [7-PRENYLOXYCOUMARIN], the result in [1], in assay [2] and in assay [3] was Active. Also, the result in assay [5] was inactive. The ED50 was above 350 mg/kg in [6], 238 mg/kg in assay [7], 221 mg/kg in assay [8] and above 350 mg/kg in assay [9]. Further, the inhibition at 100 µM in assay [10] was determined as 80%.
Consider `CC(C)=CCC/C(C)=C/COc1ccc(/C=C/C(=O)O)cc1`, for which the result in assay [1], in assay [2], in assay [3], in assay [4] and in [5] was inactive.
As for `CC(C)=CCC/C(C)=C/COc1ccc2ccc(=O)oc2c1`, the outcome in assay [1], in assay [2], in assay [3] and in assay [4] was inactive.
`CC(=O)c1ccc(OCC=C(C)C)cc1O`: the outcome in assay [1], in [2], in assay [3], in [4] and in assay [5] was inactive.
For `CC(=O)c1ccc(OC/C=C(\C)CCC=C(C)C)cc1O`, the result in assay [1], in assay [2], in assay [3], in assay [4] and in assay [5] was inactive.
For the compound `CC(C)=CCC/C(C)=C/COc1ccc(C(=O)/C=C/c2ccc(O)cc2)c(O)c1`, the outcome in assay [1], in assay [2], in assay [3], in assay [4] and in assay [5] was inactive.
Turning to `CC(C)=CCOc1ccc2ccc(=O)oc2c1O`, the outcome in assay [3], in assay [4] and in assay [5] was inactive.
Take `CC(C)=CCOc1ccc(C(=O)/C=C/c2ccccc2)c(O)c1`: the result in assay [1], in assay [2], in assay [3], in assay [4] and in assay [5] was inactive.
Turning to `CC(C)=CCOc1ccc(C(=O)/C=C/c2ccc(O)cc2)c(O)c1`, the outcome in assay [1], in assay [2], in assay [3], in [4] and in [5] was inactive.
As for `COc1c(OCC=C(C)C)ccc2ccc(=O)oc12`, the outcome in assay [1], in [2], in [3], in assay [4] and in assay [5] was inactive.
Consider `COc1c(OC/C=C(\C)CCC=C(C)C)ccc2ccc(=O)oc12`, for which the result in assay [2], in assay [3], in [4] and in [5] was inactive.

The record behind these values is ChEMBL document CHEMBL1155980, “Prenyloxyphenylpropanoids as a novel class of anticonvulsive agents” (2009).
